Assay [1] addresses T1, Acetylcholinesterase (Electrophorus electricus, UniProt O42275). As to the kind of experiment: Inhibition of electric eel AChE using acetylthiocholine iodide as substrate preincubated for 20 mins followed by substrate addition by Ellman's method.
In another assay the target is Cholinesterase (Equus caballus, UniProt P81908). As to the kind of experiment: Inhibition of horse serum BuChE using butyrylthiocholine iodide as substrate preincubated for 20 mins followed by substrate addition by Ellman's method. Type of assay: ADME.
The nature of assay [2]: Selectivity index, ratio of IC50 for horse serum BuChE to IC50 for electric eel AChE.
In assay [3] the target is T1, Acetylcholinesterase. Description: Uncompetitive inhibition of electric eel AChE using varying levels of acetylthiocholine iodide substrate preincubated for 20 mins followed by substrate addition by Lineweaver-Burk plot analysis.
The nature of assay [4]: Antioxidant activity assessed as DPPH radical scavenging activity at 10 to 100 ug/ml incubated for 30 mins under dark condition. In kind it is functional.
Assay [5] in a line: Antioxidant activity assessed as H2O2 radical scavenging activity at 10 to 100 ug/ml incubated for 10 mins by UV-Visible spectrophotometric method. In kind it is functional.
In assay [6] the test system is Rattus norvegicus. As to the kind of experiment: Ex vivo inhibition of AChE in Charles Foster albino rat brain assessed as substrate hydrolyzed per mg protein at 30 mg/kg, po measured after 1 hr using acetylthiocholine iodide as substrate by Ellman's method (reference value: 46.56 +/- 0.66 nmol/min). Type of assay: functional.
For assay [7], the system named is Rattus norvegicus. Description: Cognition enhancement activity in Charles Foster albino rat model of spatial reference memory assessed as decrease in escape latency at 20 to 30 mg/kg, po administered from day 1 to 2 measured 1 hr post last dose on day 2 by Morris water maze test. In kind it is functional, organism-based.
In assay [8] the test system is Rattus norvegicus. Description: Cognition enhancement activity in Charles Foster albino rat model of spatial reference memory assessed as increase in time spent in target quadrant during probe trial at 10 to 30 mg/kg, po administered from day 1 to 4 measured 1 hr post last dose on day 4 by Morris water maze test. Type of assay: functional, organism-based.
Assay [9] has as its system Rattus norvegicus. Description: Cognition enhancement activity in Charles Foster albino rat model of spatial working memory assessed as escape latency at 10 mg/kg, po for administered from day 1 to 10 measured 1 hr post last dose on day 7 by Morris water maze test (reference value: 17.45 +/- 0.62 sec). In kind it is functional.
Assay [10] relates to Rattus norvegicus. Description: Cognition enhancement activity in Charles Foster albino rat model of spatial working memory assessed as escape latency at 20 mg/kg, po for administered from day 1 to 10 measured 1 hr post last dose on day 7 by Morris water maze test (reference value: 17.45 +/- 0.62 sec). In kind it is functional.
Assay [11] relates to Rattus norvegicus. As to the kind of experiment: Cognition enhancement activity in Charles Foster albino rat model of spatial working memory assessed as escape latency at 30 mg/kg, po for administered from day 1 to 10 measured 1 hr post last dose on day 7 by Morris water maze test (reference value: 17.45 +/- 0.62 sec). Type of assay: functional.
Assay [12] concerns Rattus norvegicus. As to the kind of experiment: Cognition enhancement activity in Charles Foster albino rat model of spatial working memory assessed as escape latency at 10 mg/kg, po for administered from day 1 to 10 measured 1 hr post last dose on day 8 by Morris water maze test (reference value: 16.97 +/- 0.8 sec). Type of assay: functional.
The test system of assay [13] is Rattus norvegicus. As to the kind of experiment: Cognition enhancement activity in Charles Foster albino rat model of spatial working memory assessed as escape latency at 20 mg/kg, po for administered from day 1 to 10 measured 1 hr post last dose on day 8 by Morris water maze test (reference value: 16.97 +/- 0.8 sec). In kind it is functional.
Assay [14] has as its system Rattus norvegicus. As to the kind of experiment: Cognition enhancement activity in Charles Foster albino rat model of spatial working memory assessed as escape latency at 30 mg/kg, po for administered from day 1 to 10 measured 1 hr post last dose on day 8 by Morris water maze test (reference value: 16.97 +/- 0.8 sec). Type of assay: functional.
Assay [15] deals with Rattus norvegicus. Description: Cognition enhancement activity in Charles Foster albino rat model of spatial working memory assessed as escape latency at 10 mg/kg, po for administered from day 1 to 10 measured 1 hr post last dose on day 9 by Morris water maze test (reference value: 17.38 +/- 0.79 sec). Type of assay: functional.
Assay [16] deals with Rattus norvegicus. Description: Cognition enhancement activity in Charles Foster albino rat model of spatial working memory assessed as escape latency at 20 mg/kg, po for administered from day 1 to 10 measured 1 hr post last dose on day 9 by Morris water maze test (reference value: 17.38 +/- 0.79 sec). In kind it is functional.
Assay [17] relates to Rattus norvegicus. Description: Cognition enhancement activity in Charles Foster albino rat model of spatial working memory assessed as escape latency at 30 mg/kg, po for administered from day 1 to 10 measured 1 hr post last dose on day 9 by Morris water maze test (reference value: 17.38 +/- 0.79 sec). In kind it is functional.
For assay [18], the system named is Rattus norvegicus. Description: Cognition enhancement activity in Charles Foster albino rat model of spatial working memory assessed as escape latency at 10 mg/kg, po for administered from day 1 to 10 measured 1 hr post last dose on day 10 by Morris water maze test (reference value: 14.12 +/- 0.78 sec). In kind it is functional.
Assay [19] deals with Rattus norvegicus. Description: Cognition enhancement activity in Charles Foster albino rat model of spatial working memory assessed as escape latency at 20 mg/kg, po for administered from day 1 to 10 measured 1 hr post last dose on day 10 by Morris water maze test (reference value: 14.12 +/- 0.78 sec). Type of assay: functional.
The subject of assay [20] is Rattus norvegicus. Description: Cognition enhancement activity in Charles Foster albino rat model of spatial working memory assessed as escape latency at 30 mg/kg, po for administered from day 1 to 10 measured 1 hr post last dose on day 10 by Morris water maze test (reference value: 14.12 +/- 0.78 sec). Type of assay: functional.
For assay [21], the system named is Rattus norvegicus. As to the kind of experiment: Cognition enhancement activity in Charles Foster albino rat model of spatial reference memory assessed as decrease in escape latency at 10 mg/kg, po administered from day 1 to 2 measured 1 hr post last dose on day 2 by Morris water maze test. In kind it is functional, organism-based.
Assay [22] concerns Rattus norvegicus. Description: Cognition enhancement activity in Charles Foster albino rat model of spatial reference memory assessed as increase in time spent in target quadrant during probe trial at 10 mg/kg, po for 4 days administered from day 1 to 4 measured 1 hr post last dose on day 4 by Morris water maze test. Type of assay: functional, organism-based.

Calls of active or inactive are those of the source. The rule behind the calls is not given here.

T1 sequence (O42275 whole entry): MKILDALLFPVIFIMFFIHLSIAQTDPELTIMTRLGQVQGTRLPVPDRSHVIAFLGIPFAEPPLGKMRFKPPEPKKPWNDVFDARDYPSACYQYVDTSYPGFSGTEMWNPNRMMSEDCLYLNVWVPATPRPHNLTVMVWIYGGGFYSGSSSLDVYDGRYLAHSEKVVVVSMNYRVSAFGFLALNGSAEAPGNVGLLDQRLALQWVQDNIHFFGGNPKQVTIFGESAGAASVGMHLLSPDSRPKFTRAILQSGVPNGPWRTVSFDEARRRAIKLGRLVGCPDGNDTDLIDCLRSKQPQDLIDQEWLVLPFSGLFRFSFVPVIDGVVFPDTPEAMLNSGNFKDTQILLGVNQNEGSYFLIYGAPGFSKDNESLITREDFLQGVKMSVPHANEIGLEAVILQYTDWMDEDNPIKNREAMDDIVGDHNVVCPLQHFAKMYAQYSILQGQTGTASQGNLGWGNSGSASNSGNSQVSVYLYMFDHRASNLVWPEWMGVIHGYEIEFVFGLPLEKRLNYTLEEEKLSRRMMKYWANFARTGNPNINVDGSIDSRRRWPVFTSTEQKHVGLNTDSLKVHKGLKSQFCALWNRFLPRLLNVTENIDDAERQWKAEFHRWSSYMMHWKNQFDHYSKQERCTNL
Cholinesterase, sequence (P81908 whole entry): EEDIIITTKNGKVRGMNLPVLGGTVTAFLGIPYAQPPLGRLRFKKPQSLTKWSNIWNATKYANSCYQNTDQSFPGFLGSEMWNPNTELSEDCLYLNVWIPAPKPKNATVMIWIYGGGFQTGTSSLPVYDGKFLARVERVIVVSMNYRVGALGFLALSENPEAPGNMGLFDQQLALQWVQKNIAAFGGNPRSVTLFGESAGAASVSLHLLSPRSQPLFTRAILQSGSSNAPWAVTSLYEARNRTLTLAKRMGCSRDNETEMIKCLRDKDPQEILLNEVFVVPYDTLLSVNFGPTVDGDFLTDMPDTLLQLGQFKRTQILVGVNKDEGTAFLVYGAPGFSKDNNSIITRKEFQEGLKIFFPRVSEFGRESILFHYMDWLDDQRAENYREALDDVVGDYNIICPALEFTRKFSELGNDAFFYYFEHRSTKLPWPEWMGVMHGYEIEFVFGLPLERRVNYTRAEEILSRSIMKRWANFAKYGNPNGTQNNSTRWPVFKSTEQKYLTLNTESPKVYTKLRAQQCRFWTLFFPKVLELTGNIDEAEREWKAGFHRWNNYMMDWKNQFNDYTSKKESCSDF

In the case of `COc1ccc(/C(=N\c2cc(OC)cc(OC)c2)c2ccccc2)cc1`, the concentration for half-maximal inhibition (IC50) came to 4.37 µM against Acetylcholinesterase [1] and 284 µM at Cholinesterase. In assay [2], the Ratio IC50 came out at 65.1.

Turning to `COc1cc(/N=C/c2ccc([N+](=O)[O-])cc2)cc(OC)c1`, the concentration for half-maximal inhibition (IC50) at Acetylcholinesterase [1] was found to be 7.01 µM; at Cholinesterase, 452 µM. The Ratio IC50 in assay [2] was determined as 64.5.

Turning to `COc1cc(/C(C)=N/c2ccc(C(=O)O)cc2)ccc1O`, the values for the concentration for half-maximal inhibition (IC50) against Acetylcholinesterase [1] and at Cholinesterase were 3.93 µM and 839 µM, respectively. Besides, the Ratio IC50 in assay [2] stood at 214.

As to `COc1cc(/N=C/c2cc(OC)c(OC)c(OC)c2)cc(OC)c1`, the results for the half-maximal inhibitory concentration (IC50) against Acetylcholinesterase [1] and against Cholinesterase were 0.82 µM and 328 µM, respectively. Further, in [2], the Ratio IC50 came out at 402. This compound returned a Ki at Acetylcholinesterase [3] of 720 nM. The outcome (in [4]; in [5]; with Rattus norvegicus [7]; in the assay with Rattus norvegicus [8]) was Active. Moreover, the Activity with Rattus norvegicus [6] amounted to 30.85 nmol/min. Further, the Time in the assay on Rattus norvegicus [9] stood at 17.57 s; with Rattus norvegicus [10], 16.95 s; in the assay on Rattus norvegicus [11], 16.87 s; with Rattus norvegicus [12] it was 15.45 s; with Rattus norvegicus [13] it was 15.69 s; in the assay with Rattus norvegicus [14], 15.23 s. Moreover, the Time was 15.12 s with Rattus norvegicus [15]; 12.23 s in the assay with Rattus norvegicus [16]; 10.37 s in the assay with Rattus norvegicus [17]; 10.2 s in the assay on Rattus norvegicus [18]; 8.87 s in the assay with Rattus norvegicus [19]; 8.92 s in the assay with Rattus norvegicus [20].

For the compound `O=C(O)c1ccc(/N=C/c2ccc([N+](=O)[O-])cc2)cc1`, the IC50 against Acetylcholinesterase [1] is 5.95 µM; against Cholinesterase it was 217 µM. Also, the Ratio IC50 in assay [2] was 36.5.

For `COc1cc(/N=C/c2ccccc2[N+](=O)[O-])cc(OC)c1`, the results for the half-inhibitory concentration (IC50) against Acetylcholinesterase [1] and against Cholinesterase were 14.3 µM and 457 µM, respectively. In addition, the Ratio IC50 in assay [2] stood at 31.8.

In the case of `COc1cc(/N=C/c2ccccc2O)cc(OC)c1`, the half-inhibitory concentration (IC50) against Acetylcholinesterase [1] is 25.5 µM; against Cholinesterase, 747 µM. In [2], the Ratio IC50 came out at 29.2.

Turning to `COc1cc2c(cc1OC)C(=O)C(CC1CCN(Cc3ccccc3)CC1)C2` (configuration not stated) [DONEPEZIL], the result (in [4]; in [5]; in the assay with Rattus norvegicus [21]; in the assay on Rattus norvegicus [22]) was Active. Further, the Time with Rattus norvegicus [9] worked out at 16.88 s; in the assay with Rattus norvegicus [12], 14.38 s; with Rattus norvegicus [15], 7.78 s; with Rattus norvegicus [18], 7.33 s.

Turning to `COc1ccc(/C(=N\c2ccc(C(=O)O)cc2)c2ccccc2)cc1`, the values for the IC50 against Acetylcholinesterase [1] and at Cholinesterase were 6.09 µM and 292 µM, respectively. The Ratio IC50 in assay [2] came out at 47.9.

As for `O=C(O)c1ccc(/N=C/c2ccccc2O)cc1`, the IC50 amounted to 18 µM on Acetylcholinesterase [1] and 717 µM at Cholinesterase. Besides, the Ratio IC50 in assay [2] came to 39.8.

For `O=C(O)c1ccc(/N=C/c2ccccc2)cc1`, the values for the half-inhibitory concentration (IC50) on Acetylcholinesterase [1] and against Cholinesterase were 12.6 µM and 502 µM, respectively. Besides, the Ratio IC50 in assay [2] came to 39.7.

For `COc1cc(/C=N/c2ccc(C(=O)O)cc2)cc(OC)c1OC`, the half-inhibitory concentration (IC50) on Acetylcholinesterase [1] came out at 11.5 µM; against Cholinesterase, 378 µM. Also, the Ratio IC50 in assay [2] came out at 32.7.

As to `O=C(O)c1ccc(/N=C/c2ccccc2[N+](=O)[O-])cc1`, the half-inhibitory concentration (IC50) against Acetylcholinesterase [1] is 6 µM; against Cholinesterase, 387 µM. The Ratio IC50 in assay [2] stood at 64.5.

These data come from ChEMBL document CHEMBL3877326, “Design, synthesis and evaluation of some N-methylenebenzenamine derivatives as selective acetylcholinesterase (AChE) inhibitor and antioxidant to enhance learning and memory” (Bioorg Med Chem, 2017).
